Measurements: patent publication US20250312469A1 (CANGET BIOTEKPHARMA, priority 2024, published 2025)
Like-named read-outs stand apart in the source and are kept apart here. Marks after values point to notes of the source that are not given here.

[1] = male rats, Group 2, 3 mg/kg/wk, Day 15, vs Group 1
[2] = male rats, Group 3, 3.75/2.5 mg/kg/wk oral, Day 15
[3] = male rats, Group 3, 3.75/2.5 mg/kg/wk, Day 15
[4] = male rats, Group 3, 3.75/2.5 mg/kg/wk, Day 15, vs Group 1
[5] = male rats, Group 4, 4.69/2 mg/kg/wk oral, Day 15, N 2, vs vehicle Group 1
[6] = male rats, Group 4, 4.69/2 mg/kg/wk, Day 15, vs Group 1

## CCC1(O)C(=O)OCc2c1cc1n(c2=O)Cc2cc3cc4c(cc3nc2-1)OCO4 (stereo not drawn) [FL118]
[1]
  #EOS % Diff: −43.40%
  #LYMP % Diff: −13.38%
  #MONO % Diff: −25.17%
  #NEUT % Diff: −34.07%
  #RET % Diff: 53.1%
  % BASO % Diff: −8.3%
  % EOS % Diff: −35.2%
  % LYMP % Diff: 3.7%
  % MONO % Diff: −6.6%
  % NEUT % Diff: −24.1%
  % RET % Diff: 62.09%
  HCT % Diff: −8.0%
  HGB % Diff: −8.9%
  MCHC % Diff: −0.8%
  MCV % Diff: −2.7%
  MPV % Diff: −2.7%
  PLT % Diff: 14%
  RDW % Diff: 15.7%
  WBC % Diff: −16.11%
[2]
  ALB, albumin, Mean: 34.1 g/L
  ALP, alkaline phosphatase, Mean: 113 U/L
  ALT, alanine aminotransferase, Mean: 47 U/L
  AST, aspartate aminotransferase, Mean: 104 U/L
  BIL-T, total bilirubin, Mean: 1.83
  CK, creatine kinase, Mean: 296 U/L
  CRE, creatinine, Mean: 19 µmol/L
  Ca, calcium, Mean: 2.41 mmol/L
  GLB, globulin, Mean: 22.0 g/L
  K, potassium, Mean: 5.0 mmol/L
  Na, sodium, Mean: 143 mmol/L
  P, inorganic phosphorus, Mean: 2.38 mmol/L
  TCHO, total cholesterol, Mean: 1.73* mmol/L
  TG, triglyceride, Mean: 0.33 mmol/L
  TP, total protein, Mean: 56.1 g/L
  UREA, urea, Mean: 5.60 mmol/L
  sGLU, glucose, Mean: 10.18 mmol/L
[3]
  #BASO Mean: 0.02 10^3/μL
  #EOS Mean: 0.07 10^3/μL
  #LYMP Mean: 8.02 10^3/μL
  #MONO Mean: 0.23 10^3/μL
  #NEUT Mean: 1.04 10^3/μL
  #RET Mean: 342.9 10^9/L
  % BASO Mean: 0.2%
  % EOS Mean: 0.8%
  % LYMP Mean: 84.7%
  % MONO Mean: 2.4%
  % NEUT Mean: 11.2%
  % RET Mean: 4.74%
  HCT Mean: 42.3* %
  HGB Mean: 13.8** g/dL
  MCH Mean: 19.0 pg
  MCHC Mean: 32.6 g/dL
  MCV Mean: 58.2 fL
  MPV Mean: 6.5 fL
  PLT Mean: 1129 10^3/μL
  RDW Mean: 14.1*** %
  WBC Mean: 9.43 10^3/μL
[4]
  #EOS % Diff: −30.19%
  #LYMP % Diff: −12.51%
  #MONO % Diff: −18.88%
  #NEUT % Diff: −4.40%
  #RET % Diff: 55.7%
  % EOS % Diff: −22.2%
  % LYMP % Diff: −0.4%
  % MONO % Diff: −10.3%
  % NEUT % Diff: 7.9%
  % RET % Diff: 64.10%
  HCT % Diff: −7.5%
  HGB % Diff: −8.6%
  MCHC % Diff: −1.3%
  MCV % Diff: −2.9%
  PLT % Diff: 10%
  RDW % Diff: 20.5%
  WBC % Diff: −11.98%
[5]
  ALB, albumin, % Diff: −28.9%
  ALP, alkaline phosphatase, % Diff: −45%
  ALT, alanine aminotransferase, % Diff: 27.5%
  AST, aspartate aminotransferase, % Diff: 1.54%
  BIL-T, total bilirubin, % Diff: 187.51%
  CK, creatine kinase, % Diff: 13%
  CRE, creatinine, % Diff: −3%
  Ca, calcium, % Diff: −15.35%
  Cl, chloride, % Diff: −3%
  K, potassium, % Diff: 2.6%
  Na, sodium, % Diff: −1%
  P, inorganic phosphorus, % Diff: −13.59%
  TCHO, total cholesterol, % Diff: 9.81%
  TG, triglyceride, % Diff: 52.32%
  TP, total protein, % Diff: −33.1%
  UREA, urea, % Diff: 71.64%
  sGLU, glucose, % Diff: −50.96%
[6]
  #BASO % Diff: −58.33%
  #EOS % Diff: −95.28%
  #LYMP % Diff: −57.17%
  #MONO % Diff: −0.35%
  #NEUT % Diff: −19.87%
  #RET % Diff: −87.2%
  % BASO % Diff: −37.5%
  % EOS % Diff: −95.4%
  % LYMP % Diff: −11.9%
  % MONO % Diff: 76.5%
  % NEUT % Diff: 88.7%
  % RET % Diff: −87.53%
  HCT % Diff: 1.7%
  HGB % Diff: 7.1%
  MCHC % Diff: 5.4%
  MCV % Diff: −6.8%
  MPV % Diff: −5.3%
  PLT % Diff: −11%
  RBC % Diff: 8.98%
  RDW % Diff: 4.3%
  WBC % Diff: −52.17%
oral, once weekly
  NOAEL, females: 3 mg/kg/wk
  NOAEL, males: 2 mg/kg/wk
